Laboratory results: US10221171B2, “Oxathiazole thiazolium Hsp 70 inhibitors” (THE REGENTS OF THE UNIVERSITY OF CALIFORNIA, priority 2015, dated 2019)
Where two headings read alike, the source gives them in different places.

Columns and labels:
Type in all cases: cell-based
MEF (C57BL/6) = assay: MTT cell viability assay, MEF (C57BL/6); details: Mus musculus
Experimental: (§1) Cells were then treated with compound at various concentrations in 0.2 mL media. After the 72-hour incubation period, cells were washed in PBS (3×100 μL), and 10 μL MTT reagent was added with 100 μL fresh media. Cells were then incubated for 4 hr in a humidified chamber at 37° C. with 5% CO2. Insoluble formazan crystals were solubilized by addition of 0.1 mL detergent solution (4 hr at room temp., dark). Resulting colored solutions were then quantified at an absorbance of 570 nm.

MDA-MB-231 = assay: MTT cell viability assay, MDA-MB-231; details: Homo sapiens
Experimental: as §1

MCF-7 = assay: MTT cell viability assay, MCF-7; details: Homo sapiens, MTT, 72-hour incubation, read-out: IC50/μM MCF-7
Experimental: as §1

[1] = 72 h, read-out: IC50/μM MEF (C57BL/6), MTT, 72-hour incubation
[2] = MTT, 72-hour incubation, read-out: IC50/μM MEF (C57BL/6)
[3] = MDA-MB-231, 72 h, 72-hour incubation

Compound: CCn1c(=O)/c(=C2\Sc3cc(Cl)ccc3N2C)s/c1=C\c1scc[n+]1Cc1c(C)noc1C [JG-267]
- IC50 (MEF (C57BL/6); [1]): 7.6 ± 0.3 µM
- IC50 (MDA-MB-231; MDA-MB-231, 72-hour incubation): 10 ± 2 µM
- IC50 (MCF-7; MCF7): > 5 µM

Compound: CCn1c(=O)/c(=C2\Sc3cc(OC)ccc3N2C)s/c1=C\c1scc[n+]1Cc1c(C)cccc1C [JG-349]
- IC50 (MEF (C57BL/6); [2]): 1.1 ± 0.1 µM
- IC50 (MDA-MB-231; MDA-MB-231, 72-hour incubation): 0.23 ± 0.01 µM
- IC50 (MCF-7; MCF7): 0.12 ± 0.01 µM

Compound: CCn1c(=O)/c(=C2\Sc3cc(F)ccc3N2C)s/c1=C\c1scc[n+]1Cc1ccccc1S(C)(=O)=O [JG-288]
- IC50 (MEF (C57BL/6); [2]): > 10 µM
- IC50 (MDA-MB-231; MDA-MB-231, 72-hour incubation): 0.64 ± 0.08 µM
- IC50 (MCF-7; MCF7): 1.97 ± 0.11 µM

Compound: CCn1c(=O)/c(=C2\Sc3cc(C)ccc3N2C)s/c1=C\c1scc[n+]1Cc1ccccc1C(F)(F)F [JG-285]
- IC50 (MEF (C57BL/6); [2]): 0.66 ± 0.06 µM
- IC50 (MDA-MB-231; MDA-MB-231, 72-hour incubation): 0.062 ± 0.01 µM
- IC50 (MCF-7; MCF7): 0.078 ± 0.003 µM

Compound: CCn1c(=O)/c(=C2\Sc3ccc(C)cc3N2C)s/c1=C\c1scc[n+]1Cc1ccsc1C(=O)OC [JG-369]
- IC50 (MEF (C57BL/6); [2]): 0.44 ± 0.02 µM
- IC50 (MDA-MB-231; MDA-MB-231, 72-hour incubation): 0.12 ± 0.01 µM
- IC50 (MCF-7; MCF7): 0.063 ± 0.004 µM

Compound: CCn1c(=O)/c(=C2\Sc3cc(SC)ccc3N2C)s/c1=C\c1scc[n+]1Cc1ccccc1 [JG-249]
- IC50 (MEF (C57BL/6); [1]): 1.7 ± 0.1 µM
- IC50 (MDA-MB-231; [3]): 0.12 ± 0.01 µM
- IC50 (MCF-7; MCF7, 72 h): 0.13 ± 0.01 µM

Compound: CCn1c(=O)/c(=C2\Sc3cc(OC)ccc3N2C)s/c1=C\c1scc[n+]1Cc1ccsc1C(=O)OC [JG-305]
- IC50 (MEF (C57BL/6); [2]): 1 ± 0.1 µM
- IC50 (MDA-MB-231; MDA-MB-231, 72-hour incubation): 0.16 ± 0.01 µM
- IC50 (MCF-7; MCF7): 0.12 ± 0.01 µM

Compound: CCn1c(=O)/c(=C2\Sc3cc(C)ccc3N2C)s/c1=C\c1scc[n+]1Cc1ccsc1 [JG-279]
- IC50 (MEF (C57BL/6); [2]): 2.2 ± 0.1 µM
- IC50 (MDA-MB-231; MDA-MB-231, 72-hour incubation): 0.15 ± 0.01 µM
- IC50 (MCF-7; MCF7): 0.14 ± 0.03 µM

Compound: CCn1c(=O)/c(=C2\Sc3cc(Cl)ccc3N2C)s/c1=C\c1scc[n+]1Cc1ccccc1C(=O)O [JG-316]
- IC50 (MEF (C57BL/6); [2]): > 10 µM
- IC50 (MDA-MB-231; MDA-MB-231, 72-hour incubation): > 20 µM
- IC50 (MCF-7; MCF7): > 20 µM

Compound: CCn1c(=O)/c(=C2\Sc3cc(C)ccc3N2C)s/c1=C\c1scc[n+]1Cc1c(Cl)cccc1Cl [JG-371]
- IC50 (MEF (C57BL/6); [2]): 0.68 ± 0.02 µM
- IC50 (MDA-MB-231; MDA-MB-231, 72-hour incubation): 0.07 ± 0.01 µM
- IC50 (MCF-7; MCF7): 0.069 ± 0.004 µM

Compound: CCn1c(=O)/c(=C2\Sc3ccc(C)cc3N2C)s/c1=C\c1scc[n+]1Cc1ccccc1Br [JG-367]
- IC50 (MEF (C57BL/6); [2]): 0.54 ± 0.02 µM
- IC50 (MDA-MB-231; MDA-MB-231, 72-hour incubation): 0.22 ± 0.02 µM
- IC50 (MCF-7; MCF7): 0.12 ± 0.01 µM

Compound: CCn1c(=O)/c(=C2\Sc3cc(C)ccc3N2C)s/c1=C\c1scc[n+]1Cc1ccc(C(F)(F)F)o1 [JG-286]
- IC50 (MEF (C57BL/6); [2]): 5 ± 0.6 µM
- IC50 (MDA-MB-231; MDA-MB-231, 72-hour incubation): 0.14 ± 0.01 µM
- IC50 (MCF-7; MCF7): 0.27 ± 0.02 µM

Compound: CCn1c(=O)/c(=C2\Sc3cc(C)ccc3N2C)s/c1=C\c1scc[n+]1CCc1ccc(C(F)(F)F)cc1 [JG-388]
- IC50 (MEF (C57BL/6); [2]): 1.6 ± 0.1 µM
- IC50 (MDA-MB-231; MDA-MB-231, 72-hour incubation): 0.62 ± 0.07 µM
- IC50 (MCF-7; MCF7): 0.5 ± 0.04 µM

Compound: CCn1c(=O)/c(=C2\Sc3cc(Cl)ccc3N2C)s/c1=C\c1scc[n+]1Cc1ccc(Cl)cc1 [JG-255]
- IC50 (MEF (C57BL/6); [1]): 3.1 ± 0.3 µM
- IC50 (MDA-MB-231; [3]): 0.41 ± 0.06 µM
- IC50 (MCF-7; MCF7, 72 h): 1.45 ± 0.13 µM

Compound: CCn1c(=O)/c(=C2\Sc3ccc(C)cc3N2C)s/c1=C\c1scc[n+]1Cc1c(C)cccc1C [JG-362]
- IC50 (MEF (C57BL/6); [2]): 2.3 ± 0.1 µM
- IC50 (MDA-MB-231; MDA-MB-231, 72-hour incubation): 0.23 ± 0.01 µM
- IC50 (MCF-7; MCF7): 0.19 ± 0.02 µM

Compound: CCc1ccc2c(c1)S/C(=c1/s/c(=C\c3scc[n+]3Cc3ccccc3C(F)(F)F)n(CC)c1=O)N2C [JG-298]
- IC50 (MEF (C57BL/6); [2]): 0.43 ± 0.02 µM
- IC50 (MDA-MB-231; MDA-MB-231, 72-hour incubation): 0.11 ± 0.01 µM
- IC50 (MCF-7; MCF7): 0.052 ± 0.004 µM

Compound: CCn1c(=O)/c(=C2\Sc3ccc(OC)cc3N2C)s/c1=C\c1scc[n+]1Cc1ccccc1 [JG-376]
- IC50 (MEF (C57BL/6); [2]): 1 ± 0.1 µM
- IC50 (MDA-MB-231; [3]): 0.36 ± 0.05 µM
- IC50 (MCF-7; MCF7, 72 h): 0.37 ± 0.02 µM

Compound: CCn1c(=O)/c(=C2\Sc3cc(C)ccc3N2C)s/c1=C\c1scc[n+]1Cc1ccsc1C(=O)OC [JG-248]
- IC50 (MEF (C57BL/6); [2]): 1.2 ± 0.2 µM
- IC50 (MDA-MB-231; MDA-MB-231, 72-hour incubation): 0.11 ± 0.01 µM
- IC50 (MCF-7; MCF7): 0.14 ± 0.01 µM

Compound: CCn1c(=O)/c(=C2\SCCN2C)s/c1=C\c1scc[n+]1Cc1ccccc1 [JG-258]
- IC50 (MEF (C57BL/6); [2]): > 10 µM
- IC50 (MDA-MB-231; MDA-MB-231, 72-hour incubation): > 20 µM
- IC50 (MCF-7; MCF7): > 5 µM

Compound: CCn1c(=O)/c(=C2\Sc3cc(Cl)ccc3N2C)s/c1=C\c1scc[n+]1CCc1ccc(Cl)cc1 [JG-385]
- IC50 (MEF (C57BL/6); [2]): 4.4 ± 0.3 µM
- IC50 (MDA-MB-231; MDA-MB-231, 72-hour incubation): 0.61 ± 0.05 µM
- IC50 (MCF-7; MCF7): 0.69 ± 0.05 µM
